The NIST ThermoML archive (doi:10.1016/j.jct.2015.08.002)

Test: mn = molality of the nth substance listed, in mol/kg
Conditions: 298 K, Wilhelmi plate tensiometer

CCCCCCCCCCCC(=O)[O-].[Na+] [sodium dodecanoate] + O
Conditions | surface tension liquid-gas [mN/m]
m1 = 0.001 | 64.1
m1 = 0.002 | 62.2
m1 = 0.003 | 57.6
m1 = 0.004 | 54.4
m1 = 0.005 | 54.5
m1 = 0.006 | 49.9
m1 = 0.007 | 45.8
m1 = 0.008 | 44.9
m1 = 0.009 | 44
m1 = 0.01 | 44.2
m1 = 0.0105 | 41.7
m1 = 0.011 | 41.6
m1 = 0.012 | 40.9
m1 = 0.013 | 37.4
m1 = 0.014 | 37.3
m1 = 0.015 | 37.9

CCCCCCCCCCCCP(=O)([O-])[O-].[Na+].[Na+] [sodium dodecylphosphonate] + O
Conditions | surface tension liquid-gas [mN/m]
m1 = 0.002 | 66.6
m1 = 0.004 | 58.5
m1 = 0.006 | 52.9
m1 = 0.008 | 53.5
m1 = 0.01 | 52.4
m1 = 0.012 | 49.6
m1 = 0.014 | 47.4
m1 = 0.016 | 44.4
m1 = 0.017 | 44
m1 = 0.0175 | 40.9
m1 = 0.018 | 40.1
m1 = 0.0185 | 39.4
m1 = 0.019 | 40.4
m1 = 0.02 | 39.3
m1 = 0.021 | 39.6
m1 = 0.025 | 38.2
m1 = 0.04 | 36.9
m1 = 0.05 | 39.3

CCCCCCCC/C=C\CCCCCCCC(=O)[O-].[Na+] [sodium oleate] + O
Conditions | surface tension liquid-gas [mN/m]
m1 = 5e-06 | 62.8
m1 = 1e-05 | 58
m1 = 2e-05 | 51.8
m1 = 3e-05 | 51.2
m1 = 4e-05 | 50.7
m1 = 5e-05 | 49.9
m1 = 0.0001 | 42
m1 = 0.0003 | 32.9
m1 = 0.0005 | 29.4
m1 = 0.0009 | 26.6
m1 = 0.0013 | 25.6
m1 = 0.0015 | 25.4
m1 = 0.0018 | 25.1
m1 = 0.002 | 25.2
m1 = 0.003 | 25.1
